The experiment addresses HCV NS3-4A serine protease (full-length NS3-4A protein) (Hepatitis C virus genotype 1a (isolate 1) (HCV), UniProt P26664). The experiment is described as follows: HCV NS3-4A protease assay. It counts as biochemical, HCV genotype 1a. The settings on record: strain HCV-1, fluorogenic peptide substrate, read-out: Protease assay Ex. 12 IC50. As to the method:
The inhibitory activity of certain compounds of Table A against HCV NS3-4A serine protease is determined in a homogenous assay using the full-length NS3-4A protein (genotype 1a, strain HCV-1) and a commercially available internally-quenched fluorogenic peptide substrate as described by Taliani, M., et al. 1996 Anal. Biochem. 240:60-67, which is incorporated by reference in its entirety.

What is called IC50 is the concentration needed to halve the response being measured.

Sequence of HCV NS3-4A serine protease (full-length NS3-4A protein) (P26664 1027-1657): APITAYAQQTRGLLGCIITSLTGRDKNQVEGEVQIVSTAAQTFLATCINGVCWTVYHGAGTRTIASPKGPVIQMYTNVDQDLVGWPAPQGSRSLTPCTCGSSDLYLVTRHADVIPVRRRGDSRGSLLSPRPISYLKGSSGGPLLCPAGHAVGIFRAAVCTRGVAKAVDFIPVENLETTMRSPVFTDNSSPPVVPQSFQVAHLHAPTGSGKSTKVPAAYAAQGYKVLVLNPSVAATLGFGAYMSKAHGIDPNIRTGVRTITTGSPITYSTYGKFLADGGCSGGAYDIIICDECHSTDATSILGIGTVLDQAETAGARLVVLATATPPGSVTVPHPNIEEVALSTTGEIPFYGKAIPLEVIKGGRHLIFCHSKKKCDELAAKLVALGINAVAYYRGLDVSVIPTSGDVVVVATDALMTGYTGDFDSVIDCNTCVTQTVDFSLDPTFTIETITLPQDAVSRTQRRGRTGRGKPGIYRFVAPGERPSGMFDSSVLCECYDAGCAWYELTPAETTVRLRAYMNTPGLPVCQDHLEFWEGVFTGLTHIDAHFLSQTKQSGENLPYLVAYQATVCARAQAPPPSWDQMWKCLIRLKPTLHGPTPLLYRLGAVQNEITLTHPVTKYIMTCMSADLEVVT
Sequence of HCV NS3-4A serine protease (full-length NS3-4A protein) (P26664 1658-1711 partner): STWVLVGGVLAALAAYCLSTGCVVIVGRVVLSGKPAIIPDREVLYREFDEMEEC

In the case of `C=C[C@@H]1C[C@]1(NC(=O)[C@@H]1C[C@@]2(CN1C(=O)[C@@H](NC(=O)[C@@H](NC(=O)C1CCN1C(C)(C)C)C1CCCCC1)C(C)(C)C)C(C)(C)C21CCC1)C(=O)NS(=O)(=O)N1CCCC1` (stereo partly drawn) [Compound 40, (5R,8S)-7-[(2S)-2-{[(2S)-2-{[(1-tert-butylazetidin-2-yl)carbonyl]amino}-2-cyclohexylacetyl]amino}-3,3-dimethylbutanoyl]-10,10-dimethyl-N-{(1R,2S)-1-[(pyrrolidin-1-ylsulfonyl)carbamoyl]-2-vinylcyclopropyl}-7-azadispiro[3.0.4.1]decane-8-carboxamide], the IC50 turned out to be 6 nM.
Then `C=C[C@@H]1C[C@]1(NC(=O)[C@@H]1C[C@@]2(CN1C(=O)[C@@H](NC(=O)[C@@H](NC(=O)CN1CCN(C)CC1)C1CCCCC1)C(C)(C)C)C(C)(C)C21CCC1)C(=O)NS(=O)(=O)N1CCCC1` [Compound 202, (5R,8S)-7-{(2S)-2-[(cyclohexyl{[(4-methylpiperazin-1-yl)acetyl]amino}acetyl)amino]-3,3-dimethylbutanoyl}-10,10-dimethyl-N-{(1R,2S)-1-[(pyrrolidin-1-ylsulfonyl)carbamoyl]-2-vinylcyclopropyl}-7-azadispiro[3.0.4.1]decane-8-carboxamide], with 20 nM; and `C=C[C@@H]1C[C@]1(NC(=O)[C@@H]1C[C@@]2(CN1C(=O)[C@@H](NC(=O)[C@@H](NC(=O)[C@@H]1CCCCN1C(C)C)C1(C)CCCCC1)C(C)(C)C)C(C)(C)C21CCC1)C(=O)NS(=O)(=O)N1CCCC1` [Compound 135, (5R,8S)-7-[(2S)-2-{[(2S)-2-({[(2S)-1-isopropylpiperidin-2-yl]carbonyl}amino)-2-(1-methylcyclohexyl)acetyl]amino}-3,3-dimethylbutanoyl]-10,10-dimethyl-N-{(1R,2S)-1-[(pyrrolidin-1-ylsulfonyl)carbamoyl]-2-vinylcyclopropyl}-7-azadispiro[3.0.4.1]decane-8-carboxamide], with 4.5 nM.
To `C=C[C@@H]1C[C@]1(NC(=O)[C@@H]1C[C@@]2(CN1C(=O)[C@@H](NC(=O)[C@@H](NC(=O)c1cc3ccccc3[nH]1)C1CCCCC1)C(C)(C)C)C(C)(C)C21CCC1)C(=O)NS(=O)(=O)N1CCCC1` [Compound 188, (5R,8S)-7-[(2S)-2-({cyclohexyl[(1H-indol-2-ylcarbonyl)amino]acetyl}amino)-3,3-dimethylbutanoyl]-10,10-dimethyl-N-{(1R,2S)-1-[(pyrrolidin-1-ylsulfonyl)carbamoyl]-2-vinylcyclopropyl}-7-azadispiro[3.0.4.1]decane-8-carboxamide] belongs 20 nM; to `C=C[C@@H]1C[C@]1(NC(=O)[C@@H]1C[C@@]2(CN1C(=O)[C@@H](NC(=O)[C@@H](NC(=O)[C@@H]1CCCCN1C)C1CCCCC1)C(C)(C)C)C(C)(C)C21CCC1)C(=O)NS(=O)(=O)N(C)CC` [Compound 93, (5R,8S)-7-[(2S)-2-{[(2S)-2-cyclohexyl-2-({[(2S)-1-methylpiperidin-2-yl]carbonyl}amino)acetyl]amino}-3,3-dimethylbutanoyl]-N-[(1R,2S)-1-({[ethyl(methyl)amino]sulfonyl}carbamoyl)-2-vinylcyclopropyl]-10,10-dimethyl-7-azadispiro[3.0.4.1]decane-8-carboxamide], 2 nM; to `C=C[C@@H]1C[C@]1(NC(=O)[C@@H]1C[C@@]2(CN1C(=O)[C@@H](NC(=O)[C@@H](NC(=O)[C@@H]1CCCN1CC)C1CCCCC1)C1(C)CCOCC1)C(C)(C)C21CCC1)C(=O)NS(=O)(=O)N1CCCC1` [Compound 125, (5R,8S)-7-[(2S)-2-{[(2S)-2-cyclohexyl-2-({[(2S)-1-ethylpyrrolidin-2-yl]carbonyl}amino)acetyl]amino}-2-(4-methyltetrahydro-2H-pyran-4-yl)acetyl]-10,10-dimethyl-N-{(1R,2S)-1-[(pyrrolidin-1-ylsulfonyl)carbamoyl]-2-vinylcyclopropyl}-7-azadispiro[3.0.4.1]decane-8-carboxamide], less than 0.3 nM.
As to `C=C[C@@H]1C[C@]1(NC(=O)[C@@H]1C[C@@]2(CN1C(=O)[C@@H](NC(=O)[C@@H](NC(=O)[C@@H]1CCCN1C1CCCC1)C1CCCCC1)C(C)(C)C)C(C)(C)C21CCC1)C(=O)NS(=O)(=O)N1CCCC1` [Compound 28, (5R,8S)-7-[(2S)-2-{[(2S)-2-cyclohexyl-2-({[(2S)-1-cyclopentylpyrrolidin-2-yl]carbonyl}amino)acetyl]amino}-3,3-dimethylbutanoyl]-10,10-dimethyl-N-{(1R,2S)-1-[(pyrrolidin-1-ylsulfonyl)carbamoyl]-2-vinylcyclopropyl}-7-azadispiro[3.0.4.1]decane-8-carboxamide], the IC50 was found to be 2 nM.
With `C=C[C@@H]1C[C@]1(NC(=O)[C@@H]1C[C@@]2(CN1C(=O)[C@@H](NC(=O)[C@@H](NC(=O)c1cc(C)nn1C(C)(C)C)C1CCCCC1)C(C)(C)C)C(C)(C)C21CCC1)C(=O)NS(=O)(=O)N1CCCC1` [Compound 183, (5R,8S)-7-[(2S)-2-{[{[(1-tert-butyl-3-methyl-1H-pyrazol-5-yl)carbonyl]amino}(cyclohexyl)acetyl]amino}-3,3-dimethylbutanoyl]-10,10-dimethyl-N-{(1R,2S)-1-[(pyrrolidin-1-ylsulfonyl)carbamoyl]-2-vinylcyclopropyl}-7-azadispiro[3.0.4.1]decane-8-carboxamide], the IC50 came to 95 nM.
For the molecule `C=C[C@@H]1C[C@]1(NC(=O)[C@@H]1C[C@@]2(CN1C(=O)[C@@H](NC(=O)[C@@H](NC(=O)c1cc(C)nn1CC)C1CCCCC1)C(C)(C)C)C(C)(C)C21CCC1)C(=O)NS(=O)(=O)N1CCCC1` [Compound 180, (5R,8S)-7-{(2S)-2-[(cyclohexyl{[(1-ethyl-3-methyl-1H-pyrazol-5-yl)carbonyl]amino}acetyl)amino]-3,3-dimethylbutanoyl}-10,10-dimethyl-N-{(1R,2S)-1-[(pyrrolidin-1-ylsulfonyl)carbamoyl]-2-vinylcyclopropyl}-7-azadispiro[3.0.4.1]decane-8-carboxamide], the IC50 is 30 nM.
As for `C=C[C@@H]1C[C@]1(NC(=O)[C@@H]1C[C@@]2(CN1C(=O)[C@@H](NC(=O)[C@@H](NC(=O)c1cnc(C)cn1)C1CCCCC1)C(C)(C)C)C(C)(C)C21CCC1)C(=O)NS(=O)(=O)N1CCCC1` [Compound 199, (5R,8S)-7-{(2S)-2-[(cyclohexyl{[(5-methylpyrazin-2-yl)carbonyl]amino}acetyl)amino]-3,3-dimethylbutanoyl}-10,10-dimethyl-N-{(1R,2S)-1-[(pyrrolidin-1-ylsulfonyl)carbamoyl]-2-vinylcyclopropyl}-7-azadispiro[3.0.4.1]decane-8-carboxamide], the IC50 is 14 nM.
To `C=C[C@@H]1C[C@]1(NC(=O)[C@@H]1C[C@@]2(CN1C(=O)[C@@H](NC(=O)[C@@H](NC(=O)c1cnon1)C1CCCCC1)C(C)(C)C)C(C)(C)C21CCC1)C(=O)NS(=O)(=O)N1CCCC1` [Compound 201, (5R,8S)-7-[(2S)-2-({cyclohexyl[(1,2,5-oxadiazol-3-ylcarbonyl)amino]acetyl}amino)-3,3-dimethylbutanoyl]-10,10-dimethyl-N-{(1R,2S)-1-[(pyrrolidin-1-ylsulfonyl)carbamoyl]-2-vinylcyclopropyl}-7-azadispiro[3.0.4.1]decane-8-carboxamide] belongs 35 nM; to `CC[C@@H]1C[C@]1(NC(=O)[C@@H]1C[C@@]2(CN1C(=O)[C@@H](NC(=O)[C@@H](NC(=O)[C@@H]1CCCCN1C(C)C)C1CCCCC1)C(C)(C)C)C(C)(C)C21CCC1)C(=O)NS(=O)(=O)N(C)C1CC1` [Compound 90, (5R,8S)-7-[(2S)-2-{[(2S)-2-cyclohexyl-2-({[(2S)-1-isopropylpiperidin-2-yl]carbonyl}amino)acetyl]amino}-3,3-dimethylbutanoyl]-N-[(1R,2R)-1-({[cyclopropyl(methyl)amino]sulfonyl}carbamoyl)-2-ethylcyclopropyl]-10,10-dimethyl-7-azadispiro[3.0.4.1]decane-8-carboxamide], 6.5 nM.
Take `C=C[C@@H]1C[C@]1(NC(=O)[C@@H]1C[C@@]2(CN1C(=O)[C@@H](NC(=O)[C@@H](NC(=O)c1cnc3ccccc3c1)C1CCCCC1)C(C)(C)C)C(C)(C)C21CCC1)C(=O)NS(=O)(=O)N1CCCC1` [Compound 196, (5R,8S)-7-[(2S)-2-({cyclohexyl[(quinolin-3-ylcarbonyl)amino]acetyl}amino)-3,3-dimethylbutanoyl]-10,10-dimethyl-N-{(1R,2S)-1-[(pyrrolidin-1-ylsulfonyl)carbamoyl]-2-vinylcyclopropyl}-7-azadispiro[3.0.4.1]decane-8-carboxamide]: the IC50 is 20 nM.
For the molecule `C=C[C@@H]1C[C@]1(NC(=O)[C@@H]1C[C@@]2(CN1C(=O)[C@@H](NC(=O)[C@@H](NC(=O)[C@@H]1CCCCN1C(C)C)C1CCCCC1)C(C)(C)C)C(C)(C)C21CCC1)C(=O)NS(=O)(=O)N1CC[C@H](F)C1` [Compound 46, (5R,8S)-7-[(2S)-2-{[(2S)-2-cyclohexyl-2-({[(2S)-1-isopropylpiperidin-2-yl]carbonyl}amino)acetyl]amino}-3,3-dimethylbutanoyl]-N-[(1R,2S)-1-({[(3S)-3-fluoropyrrolidin-1-yl]sulfonyl}carbamoyl)-2-vinylcyclopropyl]-10,10-dimethyl-7-azadispiro[3.0.4.1]decane-8-carboxamide], the IC50 was determined as 2 nM.
With `C=C[C@@H]1C[C@]1(NC(=O)[C@@H]1C[C@@]2(CN1C(=O)[C@@H](NC(=O)[C@@H](NC(=O)C(C)(C)N1CCCCC1)C(C)(C)C)C(C)(C)C)C(C)(C)C21CCC1)C(=O)NS(=O)(=O)N1CCCC1` [Compound 24, (5R,8S)-7-[(2S)-2-({(2S)-3,3-dimethyl-2-[(2-methyl-2-piperidin-1-ylpropanoyl)amino]butanoyl}amino)-3,3-dimethylbutanoyl]-10,10-dimethyl-N-{(1R,2S)-1-[(pyrrolidin-1-ylsulfonyl)carbamoyl]-2-vinylcyclopropyl}-7-azadispiro[3.0.4.1]decane-8-carboxamide], the IC50 turned out to be 65 nM.
